The source made the active and inactive calls. No cut-off for these calls is given here.
Columns and labels:
Aspergillus fumigatus [1] = experiment: Effect on cellular morphology of Aspergillus fumigatus assessed as induction hyphal tips blunting at 20 ng/ml; assay type: functional, organism-based
Aspergillus fumigatus [2] = experiment: Antifungal activity against Aspergillus fumigatus assessed as inhibition of hyphal growth at 20 ng/ml by radial growth assay; assay type: functional, organism-based
Aspergillus fumigatus [3] = experiment: Antifungal activity against Aspergillus fumigatus assessed as induction of stunted hyphal tips at 20 ng/ml after 6 hrs; assay type: functional, organism-based
Aspergillus fumigatus [4] = experiment: Effect on cellular morphology of Aspergillus fumigatus expressing delta-cnaA mutant assessed as induction hyphal tips blunting at 20 ng/ml; assay type: functional, organism-based
Aspergillus fumigatus [5] = experiment: Decrease in 1,3-beta-D-glucan level in Aspergillus fumigatus assessed as relative fluorescence units at 20 ng/ml by aniline blue fluorescence assay; assay type: functional
Aspergillus fumigatus [6] = experiment: Antifungal activity against Aspergillus fumigatus ungerminated conidia assessed as delay in germ-tube extension at 20 ng/ml after 60 hrs of fungal growth; assay type: functional, organism-based
Aspergillus fumigatus [7] = experiment: Antifungal activity against Aspergillus fumigatus assessed as induction of balloon-like of hyphal apical tips at 32 ug/ml after 48 hrs; assay type: functional, organism-based
Aspergillus fumigatus [8] = experiment: Decrease in 1,3-beta-D-glucan level in Aspergillus fumigatus assessed as relative fluorescence units at 1 ug/ml by aniline blue fluorescence assay; assay type: functional
Aspergillus fumigatus [9] = experiment: Decrease in 1,3-beta-D-glucan level in Aspergillus fumigatus expressing delta-cnaA mutant assessed as relative fluorescence units at 1 ug/ml by aniline blue fluorescence assay; assay type: functional
Aspergillus fumigatus [10] = experiment: Antifungal activity against Aspergillus fumigatus expressing delta-cnaA mutant assessed as dead microbial cells at 1 ug/ml by trimethine oxonol staining; assay type: functional
Aspergillus fumigatus [11] = experiment: Antifungal activity against Aspergillus fumigatus assessed as inhibition of hyphal growth at 1 ug/ml by radial growth assay; assay type: functional, organism-based

C=CC[C@@H]1/C=C(\C)C[C@H](C)C[C@H](OC)[C@H]2O[C@@](O)(C(=O)C(=O)N3CCCC[C@H]3C(=O)O[C@H](/C(C)=C/[C@@H]3CC[C@@H](O)[C@H](OC)C3)[C@H](C)[C@@H](O)CC1=O)[C@H](C)C[C@@H]2OC [TACROLIMUS ANHYDROUS] was tested, and the Activity (Aspergillus fumigatus [1]) was “Active”, the Activity (Aspergillus fumigatus [2]) was “Active” and the Activity (Aspergillus fumigatus [3]) was “Dose-dependent effect”. The Activity (Aspergillus fumigatus [4]) was “Active”, the RFU (Aspergillus fumigatus [5]) was 2.909 and the Activity (Aspergillus fumigatus [6]) was “Dose-dependent effect”.

In the case of C[C@@H]([C@H](N)C(=O)N[C@H](C(=O)O)[C@H]1O[C@@H](n2ccc(=O)[nH]c2=O)[C@H](O)[C@@H]1O)[C@H](O)c1ccc(O)cn1, the Activity (Aspergillus fumigatus [7]) is reported as “Active”.

CC[C@H](C)C[C@H](C)CCCCCCCCC(=O)N[C@H]1C[C@@H](O)[C@@H](NCCN)NC(=O)[C@@H]2[C@@H](O)CCN2C(=O)[C@H]([C@H](O)CCN)NC(=O)[C@H]([C@H](O)[C@@H](O)c2ccc(O)cc2)NC(=O)[C@@H]2C[C@@H](O)CN2C(=O)[C@H]([C@@H](C)O)NC1=O [CASPOFUNGIN] was tested, and the RFU (Aspergillus fumigatus [8]) was 6.187, the RFU (Aspergillus fumigatus [9]) was 1.086 and the Activity (Aspergillus fumigatus [10]) was 15%. The Activity (Aspergillus fumigatus [11]) was “Active”.
